Source: patent US20250345328A1, “METHODS OF TREATING A RAS RELATED DISEASE OR DISORDER” (Revolution Medicines, Inc., priority 2023, published 2025)

Assay: Phase 1/1b study of Compound A: safety, treatment-related adverse events
Format: in vivo, human
Procedure: This Example describes the study design of a Phase 1/1b study of Compound A in patients with advanced solid tumors harboring specific mutations in RAS with the first patient dosed in June 2022. There are 2 parts planned in this study: Part 1: Dose Escalation and Part 2: Dose Expansion. In the Dose Escalation Phase, safety/tolerability and pharmacokinetics (PK) are assessed, and one or more candidate recommended phase 2 dose and schedule (RP2DS) for further testing in the second part of the study is determined. Enrollment in the Dose Expansion Phase begins after determination of a candidate RP2DS. Part 2 of the study further evaluates the safety/tolerability, PK, and preliminary antitumor effects within specific histotypes. Dose Expansion/Dose Optimization cohorts include RAS-mutant advanced solid tumors with specific histotypes/genotypes (including, but not limited to, NSCLC, PDAC, CRC, melanoma, gynecological cancers, other solid tumors.
Safety assessments and procedures were performed. Real-time safety monitoring was performed to ensure that the protocol-specified dose modification guidelines are followed. In addition, C1 safety and available PK and pharmacodynamic data was reviewed and evaluated at each Compound A dose level/schedule to determine whether enrollment into the next higher dose-level cohort may proceed. A modified schedule can be evaluated in which Compound A may be administered more or less frequently than once daily (QD). The totality of the data from dose escalation cohorts was reviewed and one or more candidate RP2DS for expansion in Part 2 recommended.
Compound A was administered PO QD at the following dose levels until disease progression or unacceptable toxicity: 10, 20, 40, 80, 120, 160, 220, 300, 400, and 500 mg. Progression to the next Cohort and dose level may stop if DLT is observed at a lower dose level. Other dose levels not specified but within the range listed above may also be permitted based on emergent safety and PK data.
As of Sep. 11, 2023, 131 patients received Compound A at dose levels from 10 to 400 mg QD. The majority of patients had pancreatic cancer, non-small cell lung cancer, or colorectal cancer. The most common (≥10% of patients) treatment-related adverse events (TRAEs) were rash and gastrointestinal (GI)-related toxicities that were all Grade 1 or 2 in severity. Most rashes were acneiform or maculopapular, consistent with known on-target rash presentation from other RAS pathway inhibitors. […] The most common GI-related toxicities were nausea, diarrhea, and vomiting that were manageable with standard supportive care. The median duration of treatment at the time of the data extraction was 2.27 months.

[1] = Total (N = 131), 10 to 400 mg QD, as of Sep. 11, 2023
[2] = Total (N = 131), 10 to 400 mg QD, post-data extraction associated with biliary obstruction, reported as unrelated to Compound A

## CCn1c(-c2cc(N3CCN(C)CC3)cnc2[C@H](C)OC)c2c3cc(ccc31)-c1csc(n1)C[C@H](NC(=O)[C@H]1C[C@@H]1C)C(=O)N1CCC[C@H](N1)C(=O)OCC(C)(C)C2 [Compound A]
131 patients, 10 to 400 mg QD
  Dose dependence of rash: Rash frequency, but not severity, was dose-dependent
  Fatal TRAEs: No fatal TRAEs
  Severity of the most common (≥10% of patients) TRAEs (rash and GI-related toxicities): Grade 1 or 2
[1]
  ALT elevation TRAE, Any Grade: 8 (6) n(%)
  ALT elevation TRAE, maximum severity Grade 1: 6 (5) n(%)
  ALT elevation TRAE, maximum severity Grade 2: 1 (1) n(%)
  ALT elevation TRAE, maximum severity Grade 4: 0 n(%)
  AST elevation TRAE, Any Grade: 7 (5) n(%)
  AST elevation TRAE, maximum severity Grade 1: 6 (5) n(%)
  AST elevation TRAE, maximum severity Grade 2: 0 n(%)
  AST elevation TRAE, maximum severity Grade 4: 0 n(%)
  Diarrhea TRAE, Any Grade: 42 (32) n (%)
  Diarrhea TRAE, maximum severity Grade 1: 32 (24) n (%)
  Diarrhea TRAE, maximum severity Grade 2: 9 (7) n (%)
  Diarrhea TRAE, maximum severity Grade 3: 1 (1) n (%)
  Diarrhea TRAE, maximum severity Grade 4: 0 n (%)
  Electrocardiogram QT prolonged TRAE, Any Grade: 1 (1) n(%)
  Electrocardiogram QT prolonged TRAE, maximum severity Grade 1: 1 (1) n(%)
  Electrocardiogram QT prolonged TRAE, maximum severity Grade 2: 0 n(%)
  Electrocardiogram QT prolonged TRAE, maximum severity Grade 3: 0 n(%)
  Electrocardiogram QT prolonged TRAE, maximum severity Grade 4: 0 n(%)
  Fatigue TRAE, Any Grade: 16 (12) n (%)
  Fatigue TRAE, maximum severity Grade 1: 12 (9) n (%)
  Fatigue TRAE, maximum severity Grade 2: 4 (3) n (%)
  Fatigue TRAE, maximum severity Grade 3: 0 n (%)
  Fatigue TRAE, maximum severity Grade 4: 0 n (%)
  Nausea TRAE, Any Grade: 55 (42 n (%)
  Nausea TRAE, maximum severity Grade 1: 41 (31) n (%)
  Nausea TRAE, maximum severity Grade 2: 14 (11) n (%)
  Nausea TRAE, maximum severity Grade 3: 0 n (%)
  Nausea TRAE, maximum severity Grade 4: 0 n (%)
  Rash* TRAE, Any Grade: 92 (70) n (%)
  Rash* TRAE, maximum severity Grade 1: 57 (44) n (%)
  Rash* TRAE, maximum severity Grade 2: 29 (22) n (%)
  Rash* TRAE, maximum severity Grade 3: 6 (5) n (%)
  Rash* TRAE, maximum severity Grade 4: 0 n (%)
  Stomatitis TRAE, Any Grade: 21 (16) n (%)
  Stomatitis TRAE, maximum severity Grade 1: 10 (8) n (%)
  Stomatitis TRAE, maximum severity Grade 2: 9 (7) n (%)
  Stomatitis TRAE, maximum severity Grade 3: 2 (2) n (%)
  Stomatitis TRAE, maximum severity Grade 4: 0 n (%)
  TRAEs leading to dose reduction, Any Grade: 11 (8) n(%)
  TRAEs leading to dose reduction, maximum severity Grade 1: 0 n(%)
  TRAEs leading to dose reduction, maximum severity Grade 2: 9 (7) n(%)
  TRAEs leading to dose reduction, maximum severity Grade 3: 2 n(%)
  TRAEs leading to dose reduction, maximum severity Grade 4: 0 n(%)
  TRAEs leading to treatment discontinuation, Any Grade: 1 (1) n(%)
  TRAEs leading to treatment discontinuation, maximum severity Grade 1: 0 n(%)
  TRAEs leading to treatment discontinuation, maximum severity Grade 2: 0 n(%)
  TRAEs leading to treatment discontinuation, maximum severity Grade 3: 0 n(%)
  TRAEs leading to treatment discontinuation, maximum severity Grade 4: 1 (1) n(%)
  Vomiting TRAE, Any Grade: 36 (28) n (%)
  Vomiting TRAE, maximum severity Grade 1: 27 (21) n (%)
  Vomiting TRAE, maximum severity Grade 2: 9 (7) n (%)
  Vomiting TRAE, maximum severity Grade 3: 0 n (%)
  Vomiting TRAE, maximum severity Grade 4: 0 n (%)
[2]
  ALT elevation TRAE, maximum severity Grade 3: 1 (1)+ n(%)
  AST elevation TRAE, maximum severity Grade 3: 1 (1)+ n(%)
One PDAC (120 mg) due to PD, one NSCLC (200 mg) unknown cause reported as unrelated to Compound A
  Discontinuation of study treatment due to death: Two patients discontinued study treatment due to death
One patient with PDAC treated at 80 mg, at the site of an invasive tumor
  Grade 4 TRAE (leading to treatment discontinuation): large intestine perforation
